Results as given in patent US8575170B2, “Flurbiprofen analogs and methods of use in treating cancer” (The Regents of the Unversity of Colorado, a body corporate, priority 2010, dated 2013).
Read-outs that look alike come from different tables or passages of the source.

Legend:
Format in all cases: cell-based
A549 = experiment: MTT cell viability, A549; conditions: Homo sapiens, 96 h; Adenocarcinoma lung cell line A549; 4 days incubation
Method: (§1) The ability of the flurbiprofen analog compounds of the invention to inhibit cancer cell growth and survival (viability) in a variety of cancer lines was examined in a standard MTT assay for cell viability, as detailed in Example 2.
(§2) The studies reported in Tables 1-3 above were carried out by incubating the cells in the test compound for four days, under standard cell-culture conditions, and measuring cell survival on day 5 (see Example 2).
(§3) Cell growth and survival following treatment with N—[(S)-2-Fluoro-α-methyl-4-biphenylacetyl]-[L-(4-phenylphenyl)alanine]-N-(2,2,6,6-tetramethyl-4-piperidinyl)amide (GCBH-110=B1031; (S)-Fmba-L-Bip-Atmp) were measured by a rapid colorimetric assay based on the tetrazolium salt MTT (3-(4,5-dimethylthiazol-2-yl)-2,5-diphenyl tetrazolium bromide) (Mosmann, J. Immunol. Methods 65: 55-63, 1983, with minor modifications).
(§4) Briefly, approximately 1,000-5,000 cancer cells from 15 different cancer cells lines were plated in 100 μL of growth medium in 96-well flat-bottomed microtiter plates. Cells were incubated overnight to allow recovery. Compounds to be tested were added to the cells in triplicate in a range of concentrations and the cells were incubated at 37° C., 5% CO2, with 100% humidity. Control cells were treated in the same way without antagonists. […] Absorbance was immediately determined using a scanning multiwell plate reader.

H322C = experiment: MTT cell viability, H322C; conditions: 96 h; Adenocarcinoma lung cell line H322C; 4 days incubation
Method: as §1, §2, §3, §4

H3255 = experiment: MTT cell viability, H3255; conditions: Adenocarcinoma lung cell line H3255, 4 days incubation
Method: as §1, §2, §3, §4

H1264 = experiment: MTT cell viability, H1264; conditions: 96 h; Adenosquamous lung cell line H1264; 4 days incubation
Method: as §1, §2, §3, §4

H513 = experiment: MTT cell viability, H513; conditions: 96 h; Mesothelioma lung cell line H513; 4 days incubation
Method: as §1, §2, §3, §4

H157 = experiment: MTT cell viability, H157; conditions: Homo sapiens, NCI-H157, 96 h; Squamous lung cell line H157; 4 days incubation
Method: as §1, §2, §3, §4

H520 = experiment: MTT cell viability, H520; conditions: Homo sapiens, NCI-H520, 96 h; Squamous lung cell line H520; 4 days incubation
Method: as §1, §2, §3, §4

SHP77 = experiment: MTT cell viability, SHP77; conditions: SCLC lung cell line SHP77, 4 days incubation
Method: as §1, §2, §3, §4

H446 = experiment: MTT cell viability, H446; conditions: Homo sapiens, NCI-H446, 96 h; SCLC lung cell line H446; 4 days incubation
Method: as §1, §2, §3, §4

H417 = experiment: MTT cell viability, H417; conditions: Homo sapiens, NCI-H417, 96 h; SCLC lung cell line H417; 4 days incubation
Method: as §1, §2, §3, §4

1483 = experiment: MTT cell viability, 1483; conditions: Head and neck cancer cell line 1483
Method: as §1
(§5) A similar study was conducted on 14 […] cancer cell lines, identified in Table 2.
as §3
(§6) Briefly, approximately 1,000-5,000 cancer cells from 15 different cancer cells lines were plated in 100 μL of growth medium in 96-well flat-bottomed microtiter plates. Cells were incubated overnight to allow recovery. Compounds to be tested were added to the cells in triplicate in a range of concentrations and the cells were incubated at 37° C., 5% CO2, with 100% humidity. Control cells were treated in the same way without antagonists. […] Plates were incubated for 4 days, allowing sufficient time for cell replication and compound-induced cell death to occur. […] Absorbance was immediately determined using a scanning multiwell plate reader. […]

HN31 = experiment: MTT cell viability, HN31; conditions: Head and neck cancer cell line HN31
Method: as §1, §5, §3, §6

MSK921 = experiment: MTT cell viability, MSK921; conditions: Head and neck cancer cell line MSK921
Method: as §1, §5, §3, §6

1586 = experiment: MTT cell viability, 1586; conditions: Head and neck cancer cell line 1586
Method: as §1, §5, §3, §6

L33 = experiment: MTT cell viability, L33; conditions: Pancreatic cancer cell, 96 h; Pancreatic cancer cells L33; 4 days incubation
Excerpt: as §1
(§7) Similar results were obtained for the effect of the B1031 compound on the 14 pancreatic tumor cells lines shown in Table 3 below, where the dose dependent effect of the compound on survival of the pancreatic cancer cell lines is shown in FIG. 5.
as §2, §3
(§8) Briefly, approximately 1,000-5,000 cancer cells from 15 different cancer cells lines were plated in 100 μL of growth medium in 96-well flat-bottomed microtiter plates. Cells were incubated overnight to allow recovery. […] Absorbance was immediately determined using a scanning multiwell plate reader.

HADF-2 = experiment: MTT cell viability, HADF-2; conditions: Pancreatic cancer cell, 96 h; Pancreatic cancer cells HADF-2; 4 days incubation
Excerpt: as §1, §7, §2, §3, §8

SW1990 = experiment: MTT cell viability, SW1990; conditions: Homo sapiens, 96 h; Pancreatic cancer cells SW1990; 4 days incubation
Excerpt: as §1, §7, §2, §3, §8

WM239a = experiment: MTT cell viability, WM239a; conditions: Melanoma cell line WM239a
Excerpt: as §1
The results for the several cell lines above were also consistent with IC50 values measured for two melanoma cell lines shown in Table 4 below.
as §3, §4

[1] = system: head and neck cancer cell lines; experiment: MTT cell viability, panel of head and neck cancer cell lines
Method: as §1, §5, §3
Briefly, approximately 1,000-5,000 cancer cells from 15 different cancer cells lines were plated in 100 μL of growth medium in 96-well flat-bottomed microtiter plates. Cells were incubated overnight to allow recovery. Compounds to be tested were added to the cells in triplicate in a range of concentrations and the cells were incubated at 37° C., 5% CO2, with 100% humidity. Control cells were treated in the same way without antagonists. […] Plates were incubated for 4 days, allowing sufficient time for cell replication and compound-induced cell death to occur. On day 5, 25 μL of a 2 mg/mL solution of MTT (Sigma) dissolved in RMPI-1640 was added to each well. The plate was incubated for 4 h at 37° C. The supernatant liquid was removed and the blue formazan complex was dissolved by adding 100 μL of 0.02 N HCl in 75% isopropanol to all wells. Absorbance was immediately determined using a scanning multiwell plate reader.
Similarly, cell growth and survival following treatment with GCBH-110=B1031 was tested using the same MTT assay in 6 head and neck cancer cell lines. GCBH-110=B1031 caused 50% cell death at concentrations between about 0.3 μM and about 2 μM under these conditions (FIG. 3). […] GCBH-110=B1031 caused 50% cell death at concentrations between about 0.2 μM and about 0.8 μM under these conditions.

[2] = system: pancreatic cancer cell lines; experiment: MTT cell viability, panel of pancreatic cancer cell lines
Excerpt: as §1, §7, §3
as §4, with “humidity.” for “humidity. Control cells were treated in the same way without antagonists.”

[3] = system: BTIC EF12 brain tumor initiating stem cells; experiment: Inhibition of BTIC EF12 brain tumor initiating stem cells; conditions: at 10 μM, FIG. 6B
Method: FIGS. 6A and 6B show the loss in cell viability in HT-29 colon cancer cells, in response to increasing concentrations of GH 502 (GCBH 118) (FIG. 6A), and the effect of various treatments, including increasing concentration of GH501 (GCBH 110) on U251 malignant glioma cells and BTIC EF12 brain tumor initiating stem cells (FIG. 6B).
The study shown in FIG. 6A examined the effect of GCBH-118 (GH502) on an HT-29 colon cancer cell, showing an IC50 value of about 1 μM. […] The graph indicates an IC50 value for the B1031 compound against the U251 brain cancer cell line of between 2 and 10 μM.

- IC50 (A549): 550 nM
- IC50 (H322C): 450 nM
- IC50 (H3255; listed as B1031): 900 nM
- IC50 (H3255; Homo sapiens, NCI-H3255, 96 h): 910 nM
- IC50 (H1264): 630 nM
- IC50 (H513): 1800 nM
- IC50 (H157): 210 nM
- IC50 (H520): 250 nM
- IC50 (H446): 440 nM
- IC50 (H417): 1400 nM
- IC50 (SW1990): 1500 nM
- IC50 ([1]; majority of the head and neck cell lines, read-out: IC50 value, majority of the cell lines): < 500 nM
- IC50 ([1]; span over 14 head and neck cancer cell lines, Table 2, FIGS. 3 and 4, read-out: IC50 values): 200 to 2000 nM
- IC50 ([2]; majority of the pancreatic cell lines, read-out: IC50, majority of the cell lines): ≤ 700 nM
- IC50 ([2]; span over 14 pancreatic tumor cell lines, Table 3, FIG. 5, read-out: IC50 values): 160 to 3100 nM
SMILES: C[C@H](C(=O)N[C@@H](Cc1ccc(-c2ccccc2)cc1)C(=O)NC1CC(C)(C)NC(C)(C)C1)c1ccc(-c2ccccc2)c(F)c1 [GCBH-110, N—[(S)-2-Fluoro-α-methyl-4-biphenylacetyl]-[L-(4-phenylphenyl)alanine]-N-(2,2,6,6-tetramethyl-4-piperidinyl)amide]
- IC50 (SHP77; Homo sapiens, SHP77, 96 h): 500 nM
- IC50 (SHP77; listed as B1031): 530 nM
- IC50 1483: 300 nM
- IC50 (HN31): 540 nM
- IC50 (MSK921): 770 nM
- IC50 1586: 1500 nM
- IC50 (L33): 700 nM
- IC50 (HADF-2): 700 nM
- IC50 (WM239a): 230 nM
- IC50 ([1]; 6 head and neck cancer cell lines, FIG. 3, read-out: concentrations causing 50% cell death): 300 to 2000 nM
- IC50 ([1]; another panel of head and neck cancer cell lines, longer treatment exposure, FIG. 4, read-out: concentrations causing 50% cell death): 200 to 800 nM
- compound inhibition of the BTIC EF12 cells [3]: inhibition
